From patent US20260174856A1, “USE OF HETEROARYLOXYNAPHTHALENE COMPOUND” (SHANGHAI RUNSHI MEDICAL TECHNOLOGY CO., LTD, priority 2022, published 2026)
Blank lines part the entries; values can stand above or below the compound they belong to.

Key:
[1] = Solubility experiment; conditions: for Solubility: deionized water, 25° C.
[2] = Water sorption and desorption experiment (DVS hygroscopicity); type: physicochemical; conditions: relative humidity 40%-80%, 25° C.
Experimental: Instrument: DVS Intrinsic Plus (SMS, UK).
Method: a sample was placed in a tared sample basket, the weight of the sample was automatically measured, and the sample was analyzed according to the parameters in the table below.
The samples obtained in Example 2 and Example 3 were investigated for sorption and desorption of moisture under the relative humidity of 40%-80% at 25° C. using a dynamic vapor sorption (DVS) instrument to determine the hygroscopicity of various salt forms.

[3] = Phase I clinical trial, safety evaluation; type: in vivo, human; conditions: monotherapy, patients with solid tumors
From the text: (§1) Drug: Compound B, tablets.
(§2) 1.1 Inclusion criteria: The main criteria include: (1) an age of 18-70 years old (including 18 years old and 70 years old) when signing an informed consent form; (2) patients with histopathologically or cytologically confirmed unresectable locally advanced or metastatic solid tumors, who have failed or are intolerant to standard treatments, or have no standard treatment regimens available as options; (3) the presence of at least one measurable lesion meeting RECIST v1.1 definition; (4) ECOG performance status (PS) score: 0-1; and so on.
(§3) (1) Dose escalation stage: initial doses: 1 mg, 2 mg, 4 mg, 6 mg, 9 mg, 12 mg, 16 mg, 20 mg, and 25 mg, administered orally once daily. After 7-days single administration stage, 28-days multiple administration stage began (continuous administration, with every 28 days constituting one cycle, until progressive disease or intolerable toxic reactions occurred). The subjects who had completed the treatment and observation for the 7-days single administration stage and the first cycle of the 28-days multiple administration stage, and who had acquired clinical benefit and could tolerate the drug treatment, could enter an extended treatment period based on their willingness. In the extended treatment period, every 4 weeks constituted one cycle.
(§4) (2) Dose expansion stage: 4 mg and 6 mg, administered orally once daily. For the continuous administration group, every 4 weeks constituted 1 cycle; for the group of 3-week administration and then 1-week interruption, every 4 weeks constituted one cycle; for the group of 2-week administration and then 1-week interruption, every 3 weeks constituted 1 cycle.
(§5) 1.3 Assessment of results: (1) Effectiveness evaluation: In this study, for the dose escalation stage, efficacy evaluation and data analysis were performed at the 4th week, 8th week and 12th week after the first day of the 28-days multiple administration stage and then every 8 weeks thereafter. […]

[4] = tested on: esophageal squamous cell carcinoma; assay: Phase I clinical trial, effectiveness evaluation; type: in vivo, human
From the text: ORR: the percentage of subjects with complete remission (CR) and partial remission (PR) among all enrolled subjects from the date of the first dose.
DCR: defined as the percentage of subjects with CR, PR, or stable disease (SD) among all enrolled subjects from the date of the first dose.
PR: refers to partial remission, meaning that the sum of the diameters of target lesions has reduced by at least 30% compared to the baseline level.
as §1, §2, §3, §4, §5

[5] = Solid stability experiment; type: physicochemical; conditions: for Crystalline form: XRPD, initial crystalline form I
Experimental: The sample obtained in Example 2 was investigated for physical stability and chemical stability under the conditions of 40° C./75% RH (open) and 60° C. (sealed) for 7 days, and for physical stability under the conditions of room temperature/92.5% RH (open) for 10 days.
Note: the “/” indicates undetected; the crystalline form results were obtained using the X-ray powder diffraction method.

[6] = Grinding stability experiment; type: physicochemical; conditions: XRPD
[7] = tested on: nasopharyngeal squamous cell carcinoma; assay: Phase I clinical trial, effectiveness evaluation; type: in vivo, human
From the text: as §1, §2, §3, §4
(§6) 1.3 Assessment of results: (1) Effectiveness evaluation: In this study, for the dose escalation stage, efficacy evaluation and data analysis were performed at the 4th week, 8th week and 12th week after the first day of the 28-days multiple administration stage and then every 8 weeks thereafter. For the dose expansion stage, efficacy evaluation on the group of 3-week administration and then 1-week interruption was performed at the 4th week, 8th week and 12th week after the first day of the 28-days multiple administration stage and then every 8 weeks thereafter; efficacy evaluation on the group of 2-week administration and then 1-week interruption was performed every 6 weeks after the first day of the 28-days multiple administration stage. The indicators of effectiveness include objective response rate (ORR), progression-free survival (PFS), overall survival (OS), disease control rate (DCR), and duration of response (DOR). (2) Safety evaluation: including evaluation of vital signs and physical examinations, electrocardiograms, ECOG PS scores, laboratory tests, adverse events, and the like.

[8] = tested on: pulmonary squamous cell carcinoma; assay: Phase I clinical trial, effectiveness evaluation; type: in vivo, human
From the text: as §1, §2, §3, §4, §6

[9] = of 41 patients with esophageal squamous cell carcinoma
[10] = 40° C./75% RH (open) for 7 days

Compound: Maleate
Solubility [1]: 2.0 mg/mL
Hygroscopicity [2]: 0.81%
Hygroscopicity (words) [2]: slightly hygroscopic

Compound: CNC(=O)c1cccc2cc(Oc3ccnc(NC(=O)c4ccc(N5C[C@@H](C)N[C@@H](C)C5)cc4)c3)ccc12 [Compound B]
Common (≥10%) adverse effects [3]: proteinuria, hypertension, hypoalbuminemia, decreased platelet count, decreased leukocyte count, increased alanine aminotransferase, increased aspartate aminotransferase, hyperuricemia, rash, anemia and fatigue
Overall safety [3]: overall safe and controllable
Severity of most adverse effects [3]: grade 2 or below
Response as of the latest assessment ([4]; Subject S03008, 6 mg QD continuous, in the 18th treatment cycle): remains in PR
Cases achieving PR [4, 9]: 6 cases
Cases achieving SD [4, 9]: 21 cases
Cases of SD showing target lesion reduction ([4]; of 41 patients with esophageal squamous cell carcinoma (21 SD)): 11 cases
Purity [5, 10]: 99.86%
Crystalline form [5, 10]: Not changed
Chemical stability ([5]; 40° C./75% RH and 60° C. for 7 days): good chemical stability
Physical stability of crystalline form I ([5]; 40° C./75% RH, 60° C. for 7 days, 92.5% RH for 10 days): good physical stability
Purity ([5]; 60° C. (sealed) for 7 days): 99.85%
Crystalline form ([5]; 60° C. (sealed) for 7 days): Not changed
Purity ([5]; initial state, 0 day): 99.85%
Crystalline form ([5]; room temperature/92.5% RH (open) for 10 days): Not changed
Crystalline form I after grinding ([6]; mechanically ground after dropwise addition of organic solvent (methanol, ethanol, acetone, acetonitrile, ethyl acetate, etc.)): not changed
Crystalline form I after grinding ([6]; mechanically ground using a mortar for 2 min): not changed
Crystalline form I after grinding ([6]; mechanically ground using a mortar for 5 min): not changed
Solubility in buffer compared to compound A ([1]; Na2HPO4-citric acid buffer (pH 4.6)): better solubility in the buffer compared to compound A
Target lesion reduction in SD case ([7]; 1 SD case of 2 patients with nasopharyngeal squamous cell carcinoma): also showed target lesion reduction
Maximum reduction in the target lesion ([7]; Subject S01001, stage IV, 2 mg (dose escalation) QD): 7.9%
Cases achieving SD ([7]; of 2 patients with nasopharyngeal squamous cell carcinoma): 1 case
Target lesion reduction among SD cases ([8]; 4 SD cases of 5 patients with pulmonary squamous cell carcinoma): all of which showed target lesion reduction
Maximum reduction in the target lesion ([8]; Subject S09009, stage IV, 4 mg QD continuous): 10.7%
Cases achieving SD ([8]; of 5 patients with pulmonary squamous cell carcinoma): 4 cases
Hygroscopicity [2]: 0.65%
Hygroscopicity (words) [2]: slightly hygroscopic

Compound: Fumarate
Solubility [1]: 1.3 mg/mL
Hygroscopicity [2]: 2.11. %

Second part, the compound after the results:

Hygroscopicity [2]: 2.86%
Compound: Tartrate

Solubility [1]: 3.5 mg/mL
Hygroscopicity [2]: 3.75%
Compound: Phosphate
